The values that follow come from patent publication US20050176813A1, “Novel chalcone derivatives and uses thereof” (priority 2002, published 2005).

The target in one data set is Kv1.3 (Homo sapiens, UniProt P22001). Kind of data set: Kv1.3 channel block, estimated Kd (Table 1). In kind it is binding. As to conditions: Kv1.3, end; read-out: Est. Kd, Kd end.
Chain of Kv1.3 (P22001 whole entry): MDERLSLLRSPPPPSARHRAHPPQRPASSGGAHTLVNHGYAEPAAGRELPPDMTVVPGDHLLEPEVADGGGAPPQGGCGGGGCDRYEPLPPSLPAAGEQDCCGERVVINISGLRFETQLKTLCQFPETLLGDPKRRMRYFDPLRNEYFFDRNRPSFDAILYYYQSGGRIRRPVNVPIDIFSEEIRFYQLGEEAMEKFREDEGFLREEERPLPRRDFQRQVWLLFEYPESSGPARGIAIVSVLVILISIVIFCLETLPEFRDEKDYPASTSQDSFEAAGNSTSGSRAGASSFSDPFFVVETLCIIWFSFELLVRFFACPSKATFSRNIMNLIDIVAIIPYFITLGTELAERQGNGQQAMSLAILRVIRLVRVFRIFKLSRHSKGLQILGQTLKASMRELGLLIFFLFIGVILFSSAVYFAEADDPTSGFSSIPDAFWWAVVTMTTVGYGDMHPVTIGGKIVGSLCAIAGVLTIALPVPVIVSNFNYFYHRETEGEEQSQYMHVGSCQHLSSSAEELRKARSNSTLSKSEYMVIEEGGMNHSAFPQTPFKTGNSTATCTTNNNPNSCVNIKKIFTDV
Take `COc1c(C(=O)/C=C/c2cccn2C)c(O)c(OC)c2occc12` [Example 52]: the dissociation constant Kd was 15 µM.
The same measure, in the same setting: the value for `COc1c(C(=O)CCc2ccccc2)c(O)c(OC)c2occc12` [Example 2] was 0.3 µM.
On to `COc1c(C(=O)/C=C/c2ccc(C(F)(F)F)cc2)c(O)c(OC)c2occc12` [Example 33], for which the Kd is 4 µM.
The same measure, in the same setting: to `COc1c(C(=O)/C=C/c2ccco2)c(O)c(OC)c2occc12` [Example 45] belongs 4 µM; to `COc1c(C(=O)/C=C/c2cccc(C)c2)c(O)c(OC)c2occc12` [Example 22], 0.3 µM; to `CCOc1ccc(/C=C/C(=O)c2c(O)c(OC)c3occc3c2OC)cc1` [Example 14], 1.5 µM.
On the same count and under the same terms, the value for `COc1c(C(=O)/C=C/c2ccc3c(c2)OCO3)c(O)c(OC)c2occc12` [Example 26] was 1.5 µM; that for `COc1c(C(=O)/C=C/c2ccc(O)cc2)c(O)c(OC)c2occc12` [Example 19] was 0.9 µM.
On to `COc1c(C(=O)/C=C/c2ccccc2)c(OCc2ccccc2)c(OC)c2occc12` [Example 60], for which the Kd is 0.2 µM.
With `COc1c(C(=O)/C=C/c2ccc(F)cc2)c(O)c(OC)c2occc12` [Example 17], the Kd is 1 µM.
Still for that read-out and setting: the value for `COc1c(C(=O)/C=C/c2ccc[nH]2)c(O)c(OC)c2occc12` [Example 51] was 9 µM.

Still in this data set, the particulars now being: Kv1.3, peak; read-out: Est. Kd, Kd peak.
Regarding `COc1c(C(=O)/C=C/c2cccn2C)c(O)c(OC)c2occc12` [Example 52], the equilibrium dissociation constant (Kd) is 40 µM.
`COc1c(C(=O)CCc2ccccc2)c(O)c(OC)c2occc12` [Example 2]: the Kd is 0.8 µM.
Still for that read-out and setting: the value for `COc1c(O)c(C(=O)CCc2ccccc2)c(OC)c2c1OCC2` [Example 3] was 2 µM; that for `COc1c(C(=O)/C=C/c2ccc(C(F)(F)F)cc2)c(O)c(OC)c2occc12` [Example 33] was 10 µM; that for `COc1c(C(=O)/C=C/c2ccco2)c(O)c(OC)c2occc12` [Example 45] was 20 µM.
The same measure, in the same setting: to `COc1c(C(=O)/C=C/c2cccc(C)c2)c(O)c(OC)c2occc12` [Example 22] belongs 1.5 µM; to `CCOc1ccc(/C=C/C(=O)c2c(O)c(OC)c3occc3c2OC)cc1` [Example 14], 10 µM; to `COc1c(C(=O)/C=C/c2ccc3c(c2)OCO3)c(O)c(OC)c2occc12` [Example 26], 9 µM.
The same measure, in the same setting: the value for `COc1c(C(=O)/C=C/c2ccc(O)cc2)c(O)c(OC)c2occc12` [Example 19] was 10 µM; that for `COc1c(C(=O)/C=C/c2ccccc2)c(OCc2ccccc2)c(OC)c2occc12` [Example 60] was 10 µM.
Take `COc1c(C(=O)/C=C/c2ccc(F)cc2)c(O)c(OC)c2occc12` [Example 17]: the dissociation constant Kd was 8 µM.
On the same count and under the same terms, to `COc1c(C(=O)/C=C/c2ccc[nH]2)c(O)c(OC)c2occc12` [Example 51] belongs 30 µM.

The same data set, now with this note: at 1 μM.
In the case of `COc1c(C(=O)/C=C/C=C/c2ccccc2)c(O)c(OC)c2occc12` [Example 40], the “Effect on Kv1.3” value is listed as “no effect at 1 μM Not tested against other channels”.
Take `COc1c(C(=O)/C=C/c2cccc(Oc3ccc(C)cc3)c2)c(O)c(OC)c2occc12` [Example 37]: the “Effect on Kv1.3” value is recorded as “no effect at 1 μM Not tested against other channels”.

The data set is the same for the next values; noted with them: at 5 μM.
As for `COc1c(C(=O)/C=C/c2c[nH]c3ccccc23)c(O)c(OC)c2occc12` [Example 47], the “Effect on Kv1.3” value is “no effect at 5 μM Not tested against other channels”.
Still for that read-out and setting: to `COc1c(C(=O)/C=C/c2ccc3ccccc3n2)c(O)c(OC)c2occc12` [Example 58] belongs “No effect at 5 μM”; to `COc1c(C(=O)/C=C/c2ccc3ccccc3c2)c(O)c(OC)c2occc12` [Example 39], “no effect at 5 μM Not tested against other channels”.
The same measure, in the same setting: to `COc1c(C(=O)/C=C/c2cccc(Oc3cccc(C(F)(F)F)c3)c2)c(O)c(OC)c2occc12` [Example 36] belongs “no effect at 5 μM Not tested against other channels”; to `COc1c(C(=O)/C=C/c2cccc(Oc3ccccc3)c2)c(O)c(OC)c2occc12` [Example 34], “no effect at 5 μM Not tested against other channels”; to `COc1c(C(=O)/C=C/c2cccc3ccccc23)c(O)c(OC)c2occc12` [Example 38], “no effect at 5 μM Not tested against other channels”.
With `COc1c(C(=O)/C=C/c2cccc(Oc3ccc(Cl)cc3)c2)c(O)c(OC)c2occc12` [Example 35], the “Effect on Kv1.3” value is given as “no effect at 5 μM Not tested against other channels”.

Staying with this data set, now noted: at 10 μM.
On to `COc1c(C(=O)/C=C/c2ccc([N+](=O)[O-])s2)c(O)c(OC)c2occc12` [Example 57], for which the “Effect on Kv1.3” value is on record as “No effect at 10 μM”.
As for `CCN(CC)CCOc1ccc(/C=C/C(=O)c2c(O)c(OC)c3occc3c2OC)cc1` [Example 12], the “Effect on Kv1.3” value was 10 μM no effect Not tested against other channels.

The same data set, now with this note: at 20 μM.
In the case of `COc1c(C(=O)/C=C/c2ccc(CO)o2)c(O)c(OC)c2occc12` [Example 46], the “Effect on Kv1.3” value is on record as “no effect at 20 μM Not tested against other channels”.
As for `COc1c(C(=O)/C=C/c2ccccc2C(=O)O)c(O)c(OC)c2occc12` [Example 41], the “Effect on Kv1.3” value is “no effect at 20 μM Not tested against other channels”.

Staying with this data set, now noted: stock solutions.
With `COc1c(C(=O)/C=C/c2ccc([N+](=O)[O-])cc2)c(O)c(OC)c2occc12` [Example 29], the “Behaviour of stocks in the Kv1.3 test” value is recorded as “Stocks precipitate”.

System in the next data set: not given
Test: not given
Conditions: not given
As to `COc1c(C(=O)/C=C/c2c[nH]c3ccccc23)c(O)c(OC)c2occc12` [Example 47], the melting point lay in the range of 138 to 140 °C.
Same read-out and setting: the value for `COc1c(C(=O)/C=C/c2ccc(CO)o2)c(O)c(OC)c2occc12` [Example 46] was 120 to 121 °C.
On the same count and under the same terms, the value for `COc1c(C(=O)/C=C/c2cccn2C)c(O)c(OC)c2occc12` [Example 52] was 87 to 88 °C.
On the same count and under the same terms, to `COc1c(C(=O)/C=C/c2cccc(C)c2)c(O)c(OC)c2occc12` [Example 22] belongs 97 to 98 °C; to `COc1c(C(=O)/C=C/c2ccc3c(c2)OCO3)c(O)c(OC)c2occc12` [Example 26], 139 to 140 °C.
`COc1c(C(=O)/C=C/c2cccc(Oc3ccc(Cl)cc3)c2)c(O)c(OC)c2occc12` [Example 35] displayed a melting point of 107 to 108 °C.

As usually defined, the Kd is a measure of binding affinity in units of concentration. By melting point is commonly meant the temperature, or range, at which the solid turns liquid.
